Counter-ions that a name gives are not always drawn.
These molecules were tested against T1, CRBN (Homo sapiens, UniProt Q96SW2) (assay: Competition Assay: MAPPIT-like, competition with trimethoprim-lenalidomide hybrid ligand for binding to CRBN in HEK293T cells). Conditions: HEK293T cells, 300 nM trimethoprim-lenalidomide hybrid ligand, luciferase 24 hours after compound treatment; read-out: Competition IC50.
T1 construct: expressed in transfected cells; host or cells: HEK293T
Assay type: cell-based
Text: A bait protein (protein A) is expressed as a fusion protein in which it is genetically fused to an engineered intracellular receptor domain of the leptin receptor, which is itself fused to the extracellular domain of the erythropoietin (Epo) receptor. Binding of Epo ligand to the EpoR component results in activation of receptor-associated intracellular JAK2. However, activated JAK2 cannot activate the leptin receptor to trigger STAT3 binding and its phosphorylation because its tyrosine residues, normally phosphorylated by activated JAK2, have been mutated. Reconstitution of a JAK2 phosphorylatable STAT3 docking site is instead created through interaction of a protein B with protein A, whereby protein B is fused to a cytoplasmic domain of the gp130 receptor (which now harbors appropriate tyrosine resides recognized by the activated JAK2 kinase). Thus, physical interaction of protein A with protein B reconstitutes and Epo triggers JAK2-STAT3 signaling pathway activation. Activation of STAT3 can be monitored by introduction of a STAT3-responsive reporter gene, including a luciferase-encoding gene or a gene encoding a fluorescent marker such as GFP or some other type of fluorescent protein (EGF etc.). In this manner, the MAPPIT assay provides a versatile assay to assess such recombinant protein-protein interactions, or compound- or hybrid ligand-induced protein-protein interactions, in intact cells.
Formation of the complex results in activation of a STAT-responsive luciferase reporter gene. That signal is set to 100% luciferase activity. In a separate sample set up, cells are prepared in the same manner but, in addition, co-incubated with a test compound whose interaction with CRBN is investigated. […] Increasing concentrations of test compound are assessed to determine CRBN binding efficiency as determined in this type of ligand competition experiment in living cells. Specificity of signal inhibition is assessed by a parallel experimental set up in which test compound effect is assessed for inhibition of signal generated by a control gp130 fusion protein (CTRL) that directly binds to the DHFR-fusion protein in the absence of hybrid ligand (i.e. a direct interaction of the proteins).
In more detail, HEK293T cells are cultured in Dulbecco's modified Eagle's medium supplemented with 10% fetal calf serum, incubated at 37° C., 8% CO2. […] Data points represent the average luciferase activity of triplicate samples derived from cells treated with leptin+test compound for the REM2 control (CTRL) or cells treated with leptin+hybrid ligand+test compound (CRBN) relative to leptin (CTRL) or leptin+hybrid ligand (CRBN) only treated samples (the signals obtained in absence of added test compound for both cases is set at 100% of luciferase activity on y-axis). Error bars represent standard deviations. Curves are fit using 4-parameter nonlinear regression in […] PRISM software

| IC50 [µM] | Compound |
| --- | --- |
| 0.0998 | Cc1sc2c(c1C)C(c1ccc(Cl)cc1)=N[C@@H](CC(=O)NCCOCCOCCOCCNC(=O)COc1cccc3c1CN(C1CCC(=O)NC1=O)C3=O)c1nnc(C)n1-2 (stereo partly shown) [Compound 5.58] |
| 0.189 | C#CCOCCOCCOCCOCC(=O)Nc1cc(Br)c2c(c1OC)C(=O)N(C1CCC(=O)NC1=O)C2 (stereo not shown) [Compound 5.04] |
| 0.435 | C#CCOCCOCCOCCNc1nc(Nc2ccc3c(c2)CN(C2CCC(=O)NC2=O)C3=O)c2ccsc2n1 (stereo not shown) [Compound 5.01] |

Same assay, conditions: protocol and reagents of Example 1; read-out: IC50 Competition

| IC50 [µM] | Compound |
| --- | --- |
| 6.74 | O=C1CCC(N2C(=O)c3ccccc3C2C2=c3ccccc3=NC2)C(=O)N1 (stereo not shown) [Compound C49713, 3-[1-(2H-indol-3-yl)-3-oxo-isoindolin-2-yl]piperidine-2,6-dione] |
| 5.77 | CC(C)(C)OC(=O)CC1c2ccccc2C(=O)N1C1CCC(=O)NC1=O (stereo not shown) [Compound C98053, t-butyl 2-[2-(2,6-dioxo-3-piperidyl)-3-oxo-isoindolin-1-yl]acetate] |
| 0.0674 | O=C1CCC(N2Cc3ccc(Nc4cnc5ccccc5n4)cc3C2=O)C(=O)N1 (stereo not shown) [Compound C80386, 3-[1-oxo-6-(quinoxalin-2-ylamino)isoindolin-2-yl]piperidine-2,6-dione] |
| 8.16 | COc1ccc(C2c3ccccc3C(=O)N2C2CCC(=O)NC2=O)cc1 (stereo not shown) [Compound C11892, 3-[1-(4-methoxyphenyl)-3-oxo-isoindolin-2-yl]piperidine-2,6-dione] |
| 0.88 | O=C1CCC(N2Cc3ccc(NC(=O)C4=C5C=CN=C5N=CC4)cc3C2=O)C(=O)N1 (stereo not shown) [Compound C80395, N-[2-(2,6-dioxo-3-piperidyl)-3-oxo-isoindolin-5-yl]-5H-pyrrolo[2,3-6]pyridine-4-carboxamide] |
| 0.0492 | CC1CCCN(C(=O)CNc2ccc3c(c2)C(=O)N(C2CCC(=O)NC2=O)C3)C1 (stereo not shown) [Compound C12583, 3-[6-[[2-(3-methyl-1-piperidyl)-2-oxo-ethyl]amino]-1-oxo-isoindolin-2-yl]piperidine-2,6-dione] |
| 0.383 | CC1CN(C(=O)CNc2ccc3c(c2)C(=O)N(C2CCC(=O)NC2=O)C3)CCO1 (stereo not shown) [Compound C12586, 3-[6-[[2-(2-methylmorpholin-4-yl)-2-oxo-ethyl]amino]-1-oxo-isoindolin-2-yl]piperidine-2,6-dione] |
| 23.8 | O=C1N=c2ccc(NC(=O)NCc3ccccc3)cc2=N1 [1-benzyl-3-(2-oxobenzimidazol-5-yl)urea] |
| 10 | O=C1CCC(N2Cc3ccc(NCC(=O)N4CCCCC4)cc3C2=O)C(=O)N1 (stereo not shown) [Compound C12581] |
| 13.8 | NC(=O)c1ccc2c(c1)C(=O)N(C1CCC(=O)NC1=O)C2 (stereo not shown) [Compound C39772, 2-(2,6-dioxo-3-piperidyl)-3-oxo-isoindoline-5-carboxamide] |
| 1.09 | Nc1cccc2c1CCN(C1CCC(=O)NC1=O)C2=O (stereo not shown) [Compound C47933, 3-(5-amino-1-oxo-3,4-dihydroisoquinolin-2-yl)piperidine-2,6-dione] |
| 8.68 | O=C1CCC(Nc2ncccn2)C(=O)N1 (stereo not shown) [Compound C55468, 3-(pyrimidin-2-ylamino)piperidine-2,6-dione] |
| 4.01 | NC(=O)CNc1ccc2c(c1)C(=O)N(C1CCC(=O)NC1=O)C2 (stereo not shown) [Compound C84961, 2-[[2-(2,6-dioxo-3-piperidyl)-3-oxo-isoindolin-5-yl]amino]acetamide] |
| 8.86 | NC(=O)Nc1cccc2c1CN(C1CCC(=O)NC1=O)C2=O (stereo not shown) [Compound C29490, [2-(2,6-dioxo-3-piperidyl)-1-oxo-isoindolin-4-yl]urea] |
| 1.21 | O=C1CCC(N2Cc3ccc(NCC(=O)NC4CC4)cc3C2=O)C(=O)N1 (stereo not shown) [Compound C84963, N-cyclopropyl-2-[[2-(2,6-dioxo-3-piperidyl)-3-oxo-isoindolin-5-yl]amino]acetamide] |
| 58.3 | O=C1CCC(N2C(=O)c3ccccc3C2OCc2ccccc2)C(=O)N1 (stereo not shown) [3-(1-benzyloxy-3-oxo-isoindolin-2-yl)piperidine-2,6-dione] |

More lines, now with the values behind:

| Compound | IC50 [µM] |
| --- | --- |
| NC1Cc2ccccc2C1=O (stereo not shown) [Compound C75987, 2-aminoindan-1-one; hydrochloride] | 11.2 |
| CC(=O)NCC(=O)Nc1ccc2c(c1)C(=O)N(C1CCC(=O)NC1=O)C2 (stereo not shown) [Compound C84967, 2-acetamido-N-[2-(2,6-dioxo-3-piperidyl)-3-oxo-isoindolin-5-yl]acetamide] | 3.15 |
| O=C(O)CNc1ccc2c(c1)C(=O)N(C1CCC(=O)NC1=O)C2 (stereo not shown) [Compound C47997, 2-[[2-(2,6-dioxo-3-piperidyl)-3-oxo-isoindolin-5-yl]amino]acetic acid] | 9.1 |
| CC1CN(C(=O)CNc2ccc3c(c2)C(=O)N(C2CCC(=O)NC2=O)C3)CC(=O)N1 (stereo not shown) [Compound C12598, 3-[6-[[2-(3-methyl-5-oxo-piperazin-1-yl)-2-oxo-ethyl]amino]-1-oxo-isoindolin-2-yl]piperidine-2,6-dione] | 4.88 |
| O=C1c2c(F)c(F)c(F)c(F)c2C(=O)N1c1ccc(F)cc1F [Compound C34491, 2-(2,4-difluorophenyl)-4,5,6,7-tetrafluoro-isoindoline-1,3-dione] | 16.1 |
| Cc1cccc2c1S(=O)(=O)N(C1CCC(=O)NC1=O)C2=O (stereo not shown) [Compound C75688, 3-(7-methyl-1,1,3-trioxo-1,2-benzothiazol-2-yl)piperidine-2,6-dione] | 14.7 |
| Cc1cccc2c1C(=O)N(C1CCC(=O)NC1=O)S2(=O)=O (stereo not shown) [Compound C73349, 3-(4-methyl-1,1,3-trioxo-1,2-benzothiazol-2-yl)piperidine-2,6-dione] | 4.95 |
| CN(CC1CC1)C(=O)CNc1ccc2c(c1)C(=O)N(C1CCC(=O)NC1=O)C2 (stereo not shown) [Compound C95338, N-(cyclopropylmethyl)-2-[[2-(2,6-dioxo-3-piperidyl)-3-oxo-isoindolin-5-yl]amino]-N-methyl-acetamide] | 0.0321 |
| O=C1CCC(N2Cc3ccc(Nc4ncnc5ccccc45)cc3C2=O)C(=O)N1 (stereo not shown) [C80382 acetic acid salt, acetic acid;3-[1-oxo-6-(quinazolin-4-ylamino)isoindolin-2-yl]piperidine-2,6-dione] | 0.0334 |
| O=C1CCC(N2Cc3cccc(-c4ccccc4)c3C2=O)C(=O)N1 (stereo not shown) [Compound C48020, 3-(1-oxo-7-phenyl-isoindolin-2-yl)piperidine-2,6-dione] | 0.546 |
| O=C1CCC(N2Cc3ccc(NCC(=O)Nc4ccccc4)cc3C2=O)C(=O)N1 (stereo not shown) [Compound C84965, 2-[[2-(2,6-dioxo-3-piperidyl)-3-oxo-isoindolin-5-yl]amino]-N-phenyl-acetamide] | 0.2 |
| O=C1CCC(N2Cc3cccc([N+](=O)[O-])c3C2=O)C(=O)N1 (stereo not shown) [Compound C99884, 3-(7-nitro-1-oxo-isoindolin-2-yl)piperidine-2,6-dione] | 1.37 |
| O=C(O)CNc1cccc2c1CN(C1CCC(=O)NC1=O)C2=O (stereo not shown) [2-[[2-(2,6-dioxo-3-piperidyl)-1-oxo-isoindolin-4-yl]amino]acetic acid] | 13.8 |
| Cc1cccc2c1C(=O)N(C1CCC(=O)NC1=O)C2 (stereo not shown) [Compound C28661, 3-(7-methyl-1-oxo-isoindolin-2-yl)piperidine-2,6-dione] | 0.654 |
| CN1CCN(C(=O)CNc2ccc3c(c2)C(=O)N(C2CCC(=O)NC2=O)C3)CC1=O (stereo not shown) [Compound C12597, 3-[6-[[2-(4-methyl-3-oxo-piperazin-1-yl)-2-oxo-ethyl]amino]-1-oxo-isoindolin-2-yl]piperidine-2,6-dione] | 5.5 |

Reference: patent publication US20230099031A1, “BIFUNCTIONAL AGENTS FOR PROTEIN RECRUITMENT AND/OR DEGRADATION” (Orionis Biosciences, Inc., priority 2019, published 2023)
